Patent US8361929B2, “Method of restoring male sterility in gramineous plants and male sterility restorative agent” (Tohoku University, priority 2009, dated 2013)
“Also recorded” adds a separate entry of the source.

Legend:
Format in all cases: in vivo
[1] = tested on: barley (Hordeum vulagare L. cv Haruna-nijo); assay: Anther length at heading stage after spreading auxin aqueous solutions; conditions: control groups (suitable temperature cultivation); 10^−6 M, 10^−5 M or 10^−4 M
From the text: (§1) In an experiment to verify the effect of an auxin, the above-described nursery soil for horticultural was used. In addition, to facilitate the control of an auxin aqueous solution treatment, each pair of two rectangular planter boxes (60 mm×60 mm×100 mm (length×width×height), AGC TECHNO GLASS CO., LTD., Plant Box (Model No. CUL-JAR300)) were vertically stacked on each other. A hole having a diameter of about 1 cm was formed at the bottom center of the upper box. A 6-cm wick for an alcohol lamp with a knot was passed through the hole. Then, 300 ml of vermiculite (NITTAI Co., Ltd., vermiculite for agricultural and horticultural use) was packed thereabove. In the lower box, 0.2% (v/v) of HYPONEX (HYPONeX JAPAN CORP., LTD.) was placed as a nutrient water source for plants. Seeds of Hordeum vulagare L. cv Haruna-nijo having been stored in the dark at 4° C. were stimulated to germinate in the dark at 25° C. for 48 hours. The germinated seeds were sown at four seeds per pot at the four corners of the upper container. These sown seeds were grown in an artificial climate chamber (Nippon Medical & Chemical Instruments Co., Ltd., BIOTRON LH300RDS) under conditions of 20° C. during the day, 15° C. at night, and a 16-hour photoperiod. As the light source, 20 plant growing fluorescent tubes were used (16 tubes; National FL40S FR-P, and 4 tubes; National, FL20S FR-P).
(§2) Also in this cultivation method, the fifth leaves emerge and start to develop on Day 18 or 19 after the sowing as in the case where the culture soil was used, where the day of the sowing is regarded as Day 0. The plants were cultivated under high-temperature conditions of 30° C. during the day, 25° C. at night, and a 16-hour photoperiod from Day 19 after the sowing. Thus, a high-temperature treatment was conducted for five days (120 hours). Thereafter (on Day 24 after the sowing), the conditions were changed back to the normal conditions of 20° C. during the day, 15° C. at night, and a 16-hour photoperiod. […]

[2] = tested on: barley (Hordeum vulagare L. cv Haruna-nijo); assay: Side effects of spread auxin on the plants (leaf withering)
From the text: as §1
Also in this cultivation method, the fifth leaves emerge and start to develop on Day 18 or 19 after the sowing as in the case where the culture soil was used, where the day of the sowing is regarded as Day 0. The plants were cultivated under high-temperature conditions of 30° C. during the day, 25° C. at night, and a 16-hour photoperiod from Day 19 after the sowing. Thus, a high-temperature treatment was conducted for five days (120 hours). Thereafter (on Day 24 after the sowing), the conditions were changed back to the normal conditions of 20° C. during the day, 15° C. at night, and a 16-hour photoperiod.
First, 10^−3 M, 10^−2 M, and 10^−1 M stock solutions in dimethyl sulfoxide (DMSO: Wako Pure Chemical Industries, Ltd., Production Code: 043-07216) were prepared by using each of indole-3-acetic acid (IAA: Wako Pure Chemical Industries, Ltd., Production Code: 94-00183), 1-naphthyl acetic acid (NAA: Wako Pure Chemical Industries, Ltd., Production Code: 148-00092), and 2,4-dichlorophenoxyacetic acid (2,4-D: Wako Pure Chemical Industries, Ltd., Production Code: 040-18532). The stock solutions were stored in the dark at −20° C. until used. These stock solutions were thawed immediately before spread, and each were diluted 1000-fold with distilled water. Thus, solutions were prepared at three levels of 10^−6 M, 10^−5 M, and 10^−4 M, and used as auxin aqueous solutions. […]

[3] = tested on: barley (Hordeum vulagare L. cv Haruna-nijo); assay: Pollen maturity, potassium iodide staining of anthers; conditions: control groups (suitable temperature cultivation); 10^−6 M, 10^−5 M or 10^−4 M
From the text: as §1, §2

[4] = tested on: barley (Hordeum vulagare L. cv Haruna-nijo); assay: Seed fertility (seeds produced in panicles) after auxin spreading; conditions: for seeds produced in panicles: high-temperature treated groups, 10^−4 M
From the text: as §1, §2

[5] = high-temperature treated samples, 10^−4 M

`O=C(O)COc1ccc(Cl)cc1Cl` [2,4-D, 2,4-dichlorophenoxyacetic acid] was tested, and the “change of anther length at heading stage” value [1] was “change was hardly observed”, the “negative effect on the plants (leaves)” value ([2]; control groups (suitable temperature cultivation), 10^−4 M) was “leaves stared to wither at an early stage” and the “negative effect / side effects on the plants” value (“negative effect / side effects” for short) [2, 5] was “leaves started to wither at an early stage; also recorded: withering up at the early stage”. The pollen formation [3] was “formed normally”.

`O=C(O)Cc1c[nH]c2ccccc12` [IAA, indole-3-acetic acid] was tested, and the “seeds produced in panicles” value [4] was about 90%, the “change of anther length at heading stage” value [1] was “change was hardly observed” and the “negative effect / side effects” value ([2]; in vivo) was “side effects were hardly observed”. The pollen formation [3] was “formed normally”.

With `O=C(O)Cc1cccc2ccccc12` [NAA, 1-naphthyl acetic acid] the “seeds produced in panicles” value [4] was about 90%, the “seed fertility restoration (FIG. 10)” value ([4]; individual of high-temperature treated group, spread at 10^−4 M) was “seed fertility restoration” and the “change of anther length at heading stage” value [1] was “change was hardly observed”. The “negative effect / side effects” value [2, 5] was “side effects were hardly observed” and the pollen formation [3] was “formed normally”.
